Reference: patent US20240277829A1, “HIV-1 VACCINATION AND SAMT-247 MICROBICIDE TO PREVENT HIV-1 INFECTION” (priority 2021, published 2024)

Columns and labels:
[1] = test system: human PBMC effector cells; assay: ADCC assay using SAMT-247; assay type: cell-based
Method: ADCC CEM-based assay. ADCC activity was assessed as previously described using EGFP-CEM-NKr-CCR5-SNAP cells that constitutively express GFP as targets (Rahman, M. A., et al, J Immunol 203, 2459-2471(2019)). Briefly, one million target cells were incubated with 50 μg of ΔV1 gp120 protein for 2 h at 37° C. After this coating, the target cells were washed and labeled with SNAP-SURFACE® ALEXA FLUOR® 647 (New England Biolabs, Connecticut, USA S9136S) per manufacturer recommendations for 30 min at RT. Plasma samples, heat inactivated at 56° C. for 30 min, were serially diluted (7 ten-fold dilutions starting at 1:10) and 100 μl were added to wells of a 96-well V-bottom plate (Millipore Sigma). 5000 target cells (50 μl) and 250,000 human PBMCs (50 μl) were added as effectors to each well to give an effector/target (E/T) ratio of 50:1. The plate was incubated at 37° C. for 2 h followed by two PBS washes. […] Specific killing was measured by loss of GFP from the SNAPAlexa647+ target cells. […] Normalized percent killing was calculated as: (killing in the presence of plasma-background)/(killing in the presence of KK17-background) X100. […]
ADCC assay using SAMT-247. […] SAMT-247 induced ADCC was measured by subtracting ADCC with no SAMT-247 treated effector cells from ADCC with SAMT-247 treated effector cells.

[2] = test system: NKG2A^+ cells; assay: NKG2A^+ cells, blood and mucosa, PMA (Table 1 summary); assay type: cell-based; conditions: * Zinc dependence
Method: Intracellular cytokines of Human blood NK cells using SAMT-247 and PMA stimulation with or without zinc chelator. The levels of NKG2A^+ NK cells were measured in blood of healthy humans. Human PBMCs were thawed and cultured in R10 in the presence or absence of SAMT-247 and/or PMA for 12 hours. Cells were incubated with or without Zinc chelator TPEN (cat. #P4413-100 MG, 5 μM) for 12 h. Subsequently, PBMCs were surface stained with the following: BUV737 anti-CD3 (SP34-2; cat. #741872, 5 μl), Alexa700 anti-CD20 (2H7; cat. #560631, 5 μl), BV786 anti-CD45 (HI30; cat. #563716, 5 μl) from BD Biosciences; APC-H7 anti-CD11b (ICRF44; cat. #47-0118-42, 5 μl) from eBioscience and PE-Cy7 anti-NKG2A (Z199; cat. #B10246, 5 μl) from Beckman coulter for 30 minutes at room temperature. This was followed by permeabilization with FOX3-transcription buffer set (cat. #00-5523-00) from eBioscience according to the manufacture's recommendation and subsequently intracellular staining with the following: BV750 anti-TNF-α (MAB11; cat. #566359, 5 μl), BUV396 anti-IFN-γ (B27; cat. #563563, 5 μl), BV510 anti-GranB (GB11; cat. #563388, 5 μl) from BD Biosciences; and FITC anti-Perforin (pf-344; cat. #3465-7, 5 μl) from MABTECH for 30 minutes at room temperature. Flow cytometry acquisitions were performed on a FACSymphony A5 and examined using FACSDIVA™ software (BD Biosciences).
Frequencies and cytokine levels of macaque rectal mucosal NK cells and T cells following SAMT-247 and PMA stimulation. NK/ILC and T cell frequencies and cytokine levels were measured in macaque rectal mucosa. Freshly collected rectal biopsies were processed to single cells and cultured in R10 in the presence/or absence of SAMT-247 and/or PMA for 12 hours. […]

## CC(=O)Sc1ccccc1C(=O)NCCC(N)=O [SAMT-247]
[1]; NKG2A^+, Blood and mucosa, PMA
  Function: >ADCC
[1]; effector human PBMCs pretreated with 100 nM SAMT-247 for 4 hours
  ADCC activity mediated by the plasma of all vaccinated animals: significantly augments
[2]; IFN-γ
  Cytokine: <IFN-γ *
[2]; TNF-α
  Cytokine: <TNF-α *
[2]; granzyme and perforin
  Cytokine: >Granzyme/Perforin
